Measurements reported in PubChem BioAssay AID1963420 (Molecular Pharmacology Branch, DTP, NCI, 2024).
Several values for one entry are separate records, joined by “and”; a condition that tells them apart may be missing. Identical values can stand only once.

Test system: 494315-158-R-J1-PDC complex spheroid growth, percent test/control
Assay: Anticancer human tumor 494315-158-R-J1-PDC patient-derived soft tissue sarcoma cell line growth inhibition [Asc]
Settings: for viability, T/C: stronger effect = lower value
In short: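 Stromal components (HUVEC and hMSC) are co-assembled with the cancer cells into multicellular spheroids. Drugs are then added singly or paired, at concentrations falling by half-log increments from a clinically achievable maximum, capped at 10 microM without known Cmax.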

[1] = curve of first compound, second compound 0.1 µM
[2] = curve of first compound, second compound 0.316 µM
[3] = curve of first compound, second compound 1 µM
[4] = curve of first compound, second compound 3.16 µM
[5] = curve of first compound, second compound 10 µM
[6] = second compound 0.1 µM, first compound 0.0316 µM
[7] = second compound 0.1 µM, first compound 0.1 µM
[8] = second compound 0.1 µM, first compound 0.316 µM
[9] = second compound 0.1 µM, first compound 1 µM
[10] = second compound 0.316 µM, first compound 0.0316 µM
[11] = second compound 0.316 µM, first compound 0.1 µM
[12] = second compound 0.316 µM, first compound 0.316 µM
[13] = second compound 0.316 µM, first compound 1 µM
[14] = second compound 1 µM, first compound 0.0316 µM
[15] = second compound 1 µM, first compound 0.1 µM
[16] = second compound 1 µM, first compound 0.316 µM
[17] = second compound 1 µM, first compound 1 µM
[18] = second compound 3.16 µM, first compound 0.0316 µM
[19] = second compound 3.16 µM, first compound 0.1 µM
[20] = second compound 3.16 µM, first compound 0.316 µM
[21] = second compound 3.16 µM, first compound 1 µM
[22] = second compound 10 µM, first compound 0.0316 µM
[23] = second compound 10 µM, first compound 0.1 µM
[24] = second compound 10 µM, first compound 0.316 µM
[25] = second compound 10 µM, first compound 1 µM
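Also: compound exposure lasted seven days after spheroids formed for three days.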

IC50 [1] [nM] | IC50 [2] [nM] | IC50 [3] [nM] | IC50 [4] [nM] | IC50 [5] [nM] | SMILES | viability, T/C [6] [%] | viability, T/C [7] [%] | viability, T/C [8] [%] | viability, T/C [9] [%] | viability, T/C [10] [%] | viability, T/C [11] [%] | viability, T/C [12] [%] | viability, T/C [13] [%] | viability, T/C [14] [%] | viability, T/C [15] [%] | viability, T/C [16] [%] | viability, T/C [17] [%] | viability, T/C [18] [%] | viability, T/C [19] [%] | viability, T/C [20] [%] | further results
37.8 | 14.7 | 16.5 | 3.18 | 9.27 | COc1c(OCCCN2CCOCC2)ccc2c3n(c(=NC(=O)c4cnc(N)nc4)nc12)CCN3 + Cc1c(S(C)(=O)=O)c(-c2cc(F)cc(N3CCN(c4ccc(NS(=O)(=O)c5ccc(NC(CCN6CCC(C(=O)OCCCP(=O)(O)O)CC6)CSc6ccccc6)c(S(=O)(=O)C(F)(F)F)c5)cc4)CC3)c2)c(-c2ccc(Cl)cc2)n1C(C)C | 55.6 | 29.8 | 18 | 12.9 | 37.6 | 32.1 | 15.8 | 11.1 | 39.5 | 26.6 | 14 | 10.7 | 32.7 | 21.4 | 12.5 | viability, T/C (second compound 0.1 µM, first compound 0.00316 µM): 69.7%; viability, T/C (second compound 0.1 µM, first compound 0.01 µM): 60.7%; viability, T/C (second compound 0.316 µM, first compound 0.00316 µM): 67.6%; viability, T/C (second compound 0.316 µM, first compound 0.01 µM): 56.1%; viability, T/C (second compound 1 µM, first compound 0.00316 µM): 68.3%; viability, T/C (second compound 1 µM, first compound 0.01 µM): 58%; viability, T/C (second compound 3.16 µM, first compound 0.00316 µM): 49.7%; viability, T/C (second compound 3.16 µM, first compound 0.01 µM): 45%; viability, T/C [21]: 8.31%; viability, T/C (second compound 10 µM, first compound 0.00316 µM): 69.3%; viability, T/C (second compound 10 µM, first compound 0.01 µM): 49%; viability, T/C [22]: 31.2%; viability, T/C [23]: 21.1%; viability, T/C [24]: 12.8%; viability, T/C [25]: 9.05%
3040 | 1620 | 1640 | 1080 | 2260 | O=C(c1cc(Cc2n[nH]c(=O)c3ccccc23)ccc1F)N1CCN(C(=O)C2CC2)CC1 + Cc1c(S(C)(=O)=O)c(-c2cc(F)cc(N3CCN(c4ccc(NS(=O)(=O)c5ccc(NC(CCN6CCC(C(=O)OCCCP(=O)(O)O)CC6)CSc6ccccc6)c(S(=O)(=O)C(F)(F)F)c5)cc4)CC3)c2)c(-c2ccc(Cl)cc2)n1C(C)C | 86 | 76.2 | 69.2 | 63.5 | 71.7 | 66.4 | 59.7 | 57.6 | 62.7 | 70.9 | 62 | 57.8 | 48.1 | 51.8 | 53.5 | viability, T/C (second compound 0.1 µM, first compound 3.16 µM): 49.5%; viability, T/C (second compound 0.1 µM, first compound 10 µM): 36.3%; viability, T/C (second compound 0.316 µM, first compound 3.16 µM): 42.5%; viability, T/C (second compound 0.316 µM, first compound 10 µM): 33%; viability, T/C (second compound 1 µM, first compound 3.16 µM): 40.1%; viability, T/C (second compound 1 µM, first compound 10 µM): 23.4%; viability, T/C [21]: 51%; viability, T/C (second compound 3.16 µM, first compound 3.16 µM): 37%; viability, T/C (second compound 3.16 µM, first compound 10 µM): 22.2%; viability, T/C [22]: 69.5%; viability, T/C [23]: 77.1%; viability, T/C [24]: 73.4%; viability, T/C [25]: 58.5%; viability, T/C (second compound 10 µM, first compound 3.16 µM): 46.8%; viability, T/C (second compound 10 µM, first compound 10 µM): 29.3%
– | – | – | – | – | C=CC(=O)N1CCN(c2nc(=O)n(-c3c(C)ccnc3C(C)C)c3nc(-c4c(O)cccc4F)c(F)cc23)C(C)C1 (configuration not stated) | – | – | – | – | – | – | – | – | – | – | – | – | – | – | – | viability, T/C (compound 0.0316 µM): 105% and 116% and 107%; viability, T/C (compound 0.1 µM): 109% and 108% and 91.3%; viability, T/C (compound 0.316 µM): 103% and 101% and 104%; viability, T/C (compound 1 µM): 113% and 112% and 105%; viability, T/C (compound 3.16 µM): 112% and 113% and 101%; viability, T/C (compound 10 µM): 98.8% and 110% and 109%; IC50 (curve of compound): > 10000 nM
